Assay results as given in US20260285880A1, “SUBSTITUTED DIHYDROTHIENOPYRIMIDINE COMPOUND, PREPARATION METHOD THEREFOR, AND USE THEREOF” (SHANGHAI YIDI BIOTECHNOLOGY CO., LTD., priority 2023, published 2026).

How the values were obtained:
[1] = target: PDE4B2 (Homo sapiens, UniProt Q07343); details: read-out: PDE4B2 IC50; enzyme assay
[2] = target: Flpin-293-PDE4B2 cells (Homo sapiens, UniProt Q07343); assay: cell-based; details: for inhibition at 0.001 µM: read-out: Cell Inhibition % @1 nM, 1 nM, Flpin-293-PDE4B2 cells; for inhibition at 0.01 µM: read-out: Cell Inhibition % @10 nM, 10 nM, Flpin-293-PDE4B2 cells; for inhibition at 0.1 µM: read-out: Cell Inhibition % @100 nM, 100 nM, Flpin-293-PDE4B2 cells
Chain of Flpin-293-PDE4B2 cells (Q07343 1-564 isoform Q07343-2): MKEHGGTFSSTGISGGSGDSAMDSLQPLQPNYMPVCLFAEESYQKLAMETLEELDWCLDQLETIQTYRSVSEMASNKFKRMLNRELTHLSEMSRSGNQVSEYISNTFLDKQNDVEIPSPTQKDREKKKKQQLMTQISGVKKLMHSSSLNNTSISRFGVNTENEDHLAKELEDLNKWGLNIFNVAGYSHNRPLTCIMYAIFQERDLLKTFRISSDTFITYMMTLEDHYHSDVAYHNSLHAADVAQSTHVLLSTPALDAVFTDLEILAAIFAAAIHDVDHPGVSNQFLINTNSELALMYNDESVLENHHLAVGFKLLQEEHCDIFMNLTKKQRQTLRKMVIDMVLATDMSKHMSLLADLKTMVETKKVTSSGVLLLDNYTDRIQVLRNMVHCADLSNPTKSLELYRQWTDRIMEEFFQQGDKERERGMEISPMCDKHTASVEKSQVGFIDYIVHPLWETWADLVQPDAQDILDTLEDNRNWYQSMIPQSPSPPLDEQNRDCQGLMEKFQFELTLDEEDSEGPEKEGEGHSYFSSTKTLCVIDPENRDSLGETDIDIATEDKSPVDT

[3] = target: PDE4D2 (Homo sapiens, UniProt Q08499); assay: PDE4D2 enzyme experiment (AMP-Glo); details: read-out: PDE4D2 IC50 Binding; enzyme assay
Chain of PDE4D2 (Q08499 303-809 limits assumed): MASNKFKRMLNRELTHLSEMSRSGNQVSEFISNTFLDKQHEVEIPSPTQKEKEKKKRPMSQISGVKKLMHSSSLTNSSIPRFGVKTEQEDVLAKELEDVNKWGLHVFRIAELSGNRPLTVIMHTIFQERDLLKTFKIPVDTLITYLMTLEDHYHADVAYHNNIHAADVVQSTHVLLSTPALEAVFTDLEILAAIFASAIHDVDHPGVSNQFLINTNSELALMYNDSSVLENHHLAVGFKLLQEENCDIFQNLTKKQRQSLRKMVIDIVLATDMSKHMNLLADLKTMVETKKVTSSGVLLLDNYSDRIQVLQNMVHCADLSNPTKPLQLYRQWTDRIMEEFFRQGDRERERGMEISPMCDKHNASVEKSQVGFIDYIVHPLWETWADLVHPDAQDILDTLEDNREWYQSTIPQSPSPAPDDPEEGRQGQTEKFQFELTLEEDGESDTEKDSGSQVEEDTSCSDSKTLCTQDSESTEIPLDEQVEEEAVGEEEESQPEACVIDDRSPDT

Chain of PDE4B2 (Q07343 1-564 isoform Q07343-2, species assumed): as the sequence (Q07343 1-564 isoform Q07343-2) above

Row | IC50 [1] [nM] | inhibition at 0.001 µM [2] [%] | inhibition at 0.01 µM [2] [%] | inhibition at 0.1 µM [2] [%] | IC50 [3] [nM] | Compound
1 | 0.224 | 16.8 | 73.4 | 99.6 | 0.389 | N#CC1CCN(c2ccc3c(c2)CCN(c2nc4c(c(NC5(CO)CCC5)n2)[S+]([O-])CC4)C3)C1 (stereo not drawn) [Compound 159]
2 | 0.968 | 2.85 | 21.8 | 90.6 | 1.98 | [O-][S+]1CCc2nc(N3CCc4cc(Cl)ccc4[C@H]3C3CC3)nc(NC3(CO)CCC3)c21 (stereo partly drawn) [Compound 125]
3 | 0.168 | 3.93 | 47.1 | 96.7 | 0.572 | Cn1cc(CNc2nc(N3CCc4cc(N5CCCC5)ccc4C3)nc3c2[S+]([O-])CC3)cn1 (stereo not drawn) [Compound 190]
4 | 0.502 | 9.95 | 51.5 | 92.2 | 0.46 | CN1CC2CN(c3ccc4c(c3)CCN(c3nc5c(c(NC6(CO)CCC6)n3)[S+]([O-])CC5)C4)CC2C1 (stereo not drawn) [Compound 179]
5 | 0.0251 | 75.3 | 100 | 101 | 0.0263 | CN1C[C@@H](Nc2nc(N3CCc4cc(N5CCCC5)ccc4C3)nc3c2[S+]([O-])CC3)CCC1=O (stereo partly drawn) [Compound 185]
6 | 0.0646 | 24.7 | 93.2 | 101 | 0.155 | [O-][S+]1CCc2nc(N3CCc4cc(N5CCCC5)ccc4C3)nc(NC3(CO)CC3)c21 (stereo not drawn) [Compound 186]
7 | 0.837 | 6.79 | 34.8 | 94.4 | 2.27 | Cn1cc(CNc2nc(N3CCc4cc(Cl)ccc4C3)nc3c2[S+]([O-])CC3)cn1 (stereo not drawn) [Compound 142]
8 | 0.108 | 6.54 | 46.9 | 98.6 | 0.561 | Cn1cc(Nc2nc(N3CCc4cc(N5CCCC5)ccc4C3)nc3c2[S+]([O-])CC3)cn1 (stereo not drawn) [Compound 168]
9 | 0.508 | 7.25 | 53.3 | 98.6 | 0.502 | [O-][S+]1CCc2nc(N3CCc4cc(N5CC6CC5C6)ccc4C3)nc(NC3(CO)CCC3)c21 (stereo not drawn) [Compound 177]
10 | 0.368 | 16.2 | 78.6 | 102 | 0.651 | [O-][S+]1CCc2nc(N3CCc4cc(N5CCC[C@H]5CO)ccc4C3)nc(NC3(CO)CCC3)c21 (stereo partly drawn) [Compound 132]
11 | 0.838 | 5.4 | 49.9 | 96.8 | 2.04 | C[C@H]1Cc2cc(Cl)ccc2CN1c1nc2c(c(NC3(CO)CCC3)n1)[S+]([O-])CC2 (stereo partly drawn) [Compound 122]
12 | 0.387 | 8.72 | 39.6 | 96.6 | 0.73 | [O-][S+]1CCc2nc(N3CCc4cc(N5CCCC5)ccc4C3)nc(N3CCC[C@H]3CO)c21 (stereo partly drawn) [Compound 188]
13 | 0.417 | 4.88 | 38.2 | 96 | 1.27 | COc1nn(C)cc1Nc1nc(N2CCc3cc(N4CCCC4)ccc3C2)nc2c1[S+]([O-])CC2 (stereo not drawn) [Compound 193]
14 | 13.5 | 0.4 | 10 | 29.4 | 48.2 | C[C@@H]1Cc2cc(Cl)ccc2CN1c1nc2c(c(NC3(CO)CCC3)n1)[S+]([O-])CC2 (stereo partly drawn) [Compound 121]
15 | 0.333 | 4.28 | 33.6 | 92.9 | 1.08 | [O-][S+]1CCc2nc(N3CCc4cc(N5CCCC5)ccc4C3)nc(Nc3cn[nH]c3)c21 (stereo not drawn) [Compound 194]
